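Cells were grown in 96-well plates and exposed to each compound for 48 hours at five concentrations; endpoints were interpolated linearly between bracketing concentrations, or set to the highest concentration if not reached. Abbreviation: GI50, concentration required for 50% inhibition of growth. The concentration for full growth arrest is given as TGI.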
Columns and labels:
Test in all cases: NCI tumour cell line growth inhibition, 48 h
HCC-2998 colon = tested on: HCC-2998 colon
NCI-H23 lung = tested on: NCI-H23 lung
KM12 colon = tested on: KM12 colon
HS 578T breast = tested on: HS 578T breast
COLO 205 colon = tested on: COLO 205 colon
A498 renal = tested on: A498 renal
MDA-MB-231 breast = tested on: MDA-MB-231 breast
DMS 114 small cell lung = tested on: DMS 114 small cell lung
DMS 273 small cell lung = tested on: DMS 273 small cell lung
DLD-1 colon = tested on: DLD-1 colon
XF 498 CNS = tested on: XF 498 CNS
HOP-18 NSCLC = tested on: HOP-18 NSCLC

SMILES | TGI (HCC-2998 colon) [µM] | TGI (NCI-H23 lung) [µM] | TGI (KM12 colon) [µM] | TGI (HS 578T breast) [µM] | TGI (COLO 205 colon) [µM] | TGI (A498 renal) [µM] | TGI (MDA-MB-231 breast) [µM] | TGI (DMS 114 small cell lung) [µM] | TGI (DMS 273 small cell lung) [µM] | TGI (DLD-1 colon) [µM] | TGI (XF 498 CNS) [µM] | TGI (HOP-18 NSCLC) [µM] | GI50 (HCC-2998 colon) [µM] | GI50 (NCI-H23 lung) [µM] | GI50 (KM12 colon) [µM] | GI50 (HS 578T breast) [µM] | GI50 (COLO 205 colon) [µM] | GI50 (A498 renal) [µM]
CCOC1OC(CO)C(O)CC1n1ccc(=O)[nH]c1=O (stereo not given) | > 100 | > 100 | > 100 | > 100 | > 100 | > 100 | > 100 |  |  |  |  |  |  |  |  |  |  | 
CNC(=O)c1n[nH]n(C2CCCCC2)c1=S | > 100 | > 100 | > 100 | > 100 | > 100 | > 100 | > 100 |  |  |  |  |  |  |  |  |  |  | 
CCOc1ccccc1N=Nc1ccc2oc(=O)c(C(C)=O)cc2c1 | > 100 | > 100 | > 100 |  | > 100 | > 100 |  | > 100 | > 100 | > 100 | > 100 |  |  |  |  |  |  | 
COc1nc(N=P(c2ccccc2)(c2ccccc2)c2ccccc2)cc(=O)n1C | > 100 | > 100 | > 100 | > 100 | > 100 | > 100 | > 100 |  |  |  |  |  |  |  |  |  |  | 
Nc1nc2c(N)cc(C(F)(F)F)cc2nc1-c1ccccc1 | > 100 | > 100 | > 100 |  | > 100 | > 100 |  | > 100 | > 100 | > 100 | > 100 | > 100 |  |  |  |  |  | 
O=C(NCCN1CCCCC1)c1ccc(Br)cc1 | > 100 | > 100 | > 100 | > 100 | > 100 | > 100 | > 100 |  |  |  |  |  |  |  |  |  |  | 
O=Cc1c[nH]c2c(=O)[nH]cnc12 | > 100 | > 100 | > 100 |  | > 100 |  |  | > 100 |  | > 100 |  | > 100 |  |  |  |  |  | 
CC(C)N(C(=O)C12C3C4C1C1C2C3C41C#N)C(C)C (stereo not given) | > 100 | > 100 | > 100 |  | > 100 | > 100 |  | > 100 | > 100 | > 100 | > 100 | > 100 |  |  |  |  |  | 
CC1=CC2C(C=C1)S(=O)(=O)N1CC21c1ccccc1 (stereo not given) | > 100 | > 100 | > 100 |  | > 100 | > 100 |  | > 100 | > 100 | > 100 |  | > 100 |  |  |  |  |  | 
O=c1[nH]/c(=C/c2ccc3c(c2)OCO3)c(=O)[nH]/c1=C/c1ccc2c(c1)OCO2 | > 10 | > 10 | > 10 | > 10 | > 10 | > 10 | > 10 |  |  |  |  |  |  |  |  |  |  | 
O=C1N/C(=N\N=C\c2ccccc2)C(c2ccccc2)O1 (stereo not given) | > 100 | > 100 | > 100 | > 100 | > 100 | > 100 | > 100 |  |  |  |  |  |  |  |  |  |  | 
O=C(Cc1ccccc1)NN1C(=O)C(Cl)C1c1ccccc1Cl (stereo not given) | > 100 | > 100 | > 100 |  | > 100 | > 100 |  | > 88.4 | > 100 | > 100 | > 100 | > 100 |  |  |  |  |  | 
CCN(CC)CCCNc1c2c(Cl)cc(Cl)cc2nc2nc(=O)[nH]c(C)c12 | 51 | > 100 | 31.1 | > 100 | > 100 | > 100 | 33.8 |  |  |  |  |  |  |  |  |  |  | 
NS(=O)(=O)c1ccc(NC(=O)N/N=C/c2ccccc2O)cc1 | > 100 | > 100 | > 100 | > 100 | > 100 | > 100 | > 100 |  |  |  |  |  |  |  |  |  |  | 
COC1(CC[C@@H](C)COC2OC(CO)C(O)C(O)C2O)O[C@H]2C[C@H]3[C@@H]4CC=C5C[C@@H](OC6OC(CO)C(OC7OC(C)C(O)C(O)C7O)C(O)C6OC6OC(C)C(O)C(O)C6O)CC[C@]5(C)[C@H]4CC[C@]3(C)[C@H]2[C@@H]1C (stereo not given in full) | 8.5 | 9.14 | 2.65 | 3.99 | 19.2 | 9.76 | 6.66 |  |  |  |  |  | 2.97 | 2.95 | 1.01 | 1.18 | 2.99 | 3.86
Clc1ccc(Cl)c(N=Nc2cc3c4c(c2)CCN4CCC3)c1 | > 10 | > 10 | > 10 | > 10 | > 10 | > 10 | > 10 |  |  |  |  |  |  |  |  |  |  | 
FC(F)(F)c1ccccc1C1SCC2=Nc3ccccc3CN21 (stereo not given) | 27.6 | 26.6 | 25.5 | 27.4 | 25 | 35.3 | > 100 |  |  |  |  |  |  |  |  |  |  | 
CC(=O)CCCCn1c(=O)c2c(nc(Br)n2C)n(C)c1=O | > 100 | > 100 | > 100 | > 100 | > 100 | > 100 | > 100 |  |  |  |  |  |  |  |  |  |  | 

— PubChem BioAssay (NCI)
